Test system: SOCS3 associated with the insulin receptor (SOCS3/IRβ)
Assay: Ex vivo Western blotting of SOCS3 to IR beta chain ratio in hippocampal formation
Assay type: cell-based, human
Settings: MCI cases
From the text: The data shown are ratios of SOCS3 to IR beta chain (IRβ) in ex vivo Western blotting tests on the hippocampal formation of age- and sex-matched normal (N), non-amnestic mild cognitive impairment (naMCI), amnestic mild cognitive impairment (aMCI), and AD dementia (ADd) cases (n=10 in each group). The basal SOCS3/IRβ levels were highly elevated in naMCI, aMCI, and ADd cases compared to the normal cases. […] Asterisks indicate statistical significance levels for differences within diagnostic groups (*=p<0.05 and *** p=<0.0001).

D-Ala^2 GIP
basal SOCS3/IRβ ratio: highly effective in reducing this ratio

From patent US20170112897A1, “METHODS FOR TREATING BRAIN INSULIN RESISTANCE” (priority 2015, published 2017)
